Results reported in patent US10597388B2, “Pyridazinone herbicides” (FMC CORPORATION, priority 2014, dated 2020).

Experiments:
Test in all cases: Test D controlled growth environment herbicide test, pre- and postemergence
Format in all cases: in vivo
[1] = tested on: Russian thistle (Salsola kali)
Procedure, shortened: (§1)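 Pre-emergence: seeds sown in silt loam soil were sprayed with compound in a non-phytotoxic solvent mix containing surfactant. Post-emergence: plants at 2 to 18 cm (1- to 4-leaf stage) in peat moss/vermiculite medium got the same formulation. Visual 0–100 rating versus controls after 14 to 21 d.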

[2] = tested on: bluegrass (annual bluegrass, Poa annua)
Procedure, shortened: as §1

[3] = tested on: bromegrass, downy (downy bromegrass, Bromus tectorum)
Procedure, shortened: as §1

[4] = tested on: buckwheat, wild (wild buckwheat, Polygonum convolvulus)
Procedure, shortened: as §1

[5] = tested on: canarygrass (Phalaris minor)
Procedure, shortened: as §1

[6] = tested on: chamomile (scentless chamomile, Matricaria inodora)
Procedure, shortened: as §1

[7] = tested on: field poppy (Papaver rhoeas)
Procedure, shortened: as §1

[8] = tested on: field violet (Viola arvensis)
Procedure, shortened: as §1

[9] = tested on: mustard, wild (wild mustard, Sinapis arvensis)
Procedure, shortened: as §1

[10] = tested on: oat, wild (wild oat, Avena fatua)
Procedure, shortened: as §1

[11] = tested on: oilseed rape (Brassica napus)
Procedure, shortened: as §1

[12] = tested on: radish, wild (wild radish, Raphanus raphanistrum)
Procedure, shortened: as §1

[13] = tested on: wheat, spring (spring wheat, Triticum aestivum)
Procedure, shortened: as §1

[14] = Postemergence, 31 g ai/ha, scale 0 to 100 (0 no effect, 100 complete control)
[15] = Postemergence, 125 g ai/ha, visual rating on scale 0 (no effect) to 100 (complete control), 14 to 21 d
[16] = Postemergence, 250 g ai/ha, scale 0 to 100 (0 no effect, 100 complete control)
[17] = Preemergence, 62 g ai/ha, scale 0 to 100 (0 no effect, 100 complete control)
[18] = Preemergence, 125 g ai/ha, scale 0 to 100 (0 no effect, 100 complete control)
[19] = Preemergence, 250 g ai/ha, scale 0 to 100 (0 no effect, 100 complete control)
[20] = postemergence, 62 g ai/ha, scale 0 to 100, 0 no effect, 100 complete control

Q: How did the “Russian Thistle plant response rating” value [1, 14] turn out when `Cc1ccc(-c2c(O)c(Br)nn(C)c2=O)c2ccccc12` [Compound 52] was run?
A: Its value is 20.

Q: And the “Plant response rating, Russian Thistle” value [1, 15]?
A: The value was 45.

Q: And the “Plant response rating, Russian Thistle” value [1, 16]?
A: The value was 55.

Q: What about the “Plant response rating (scale of 0 to 100), Russian Thistle” value ([1]; Preemergence, 31 g ai/ha) of the same compound?
A: Its value is 0.

Q: What about the “Plant response rating, Russian Thistle” value [1, 17] of the same compound?
A: The value was 0.

Q: What about the “Plant response rating, Russian Thistle” value [1, 18] of the same compound?
A: The value was 0.

Q: And the “Plant response rating, Russian Thistle” value [1, 19]?
A: Its value is 0.

Q: What about the “Plant response rating, Russian Thistle” value [1, 20] of the same compound?
A: The value was 35.

Q: And the “Bluegrass plant response rating” value [2, 14]?
A: Its value is 5.

Q: What about the “Plant response rating, Bluegrass” value [2, 15] of the same compound?
A: Its value is 30.

Q: And the “Plant response rating, Bluegrass” value [2, 16]?
A: The value was 30.

Q: And the “Plant response rating (scale of 0 to 100), Bluegrass” value ([2]; Preemergence, 31 g ai/ha)?
A: The value was 0.

Q: And the “Plant response rating, Bluegrass” value [2, 17]?
A: Its value is 10.

Q: What about the “Plant response rating, Bluegrass” value [2, 18] of the same compound?
A: The value was 25.

Q: And the “Plant response rating, Bluegrass” value [2, 19]?
A: The value was 35.

Q: What about the “Plant response rating, Bluegrass” value [2, 20] of the same compound?
A: Its value is 5.

Q: And the “Bromegrass, Downy plant response rating” value [3, 14]?
A: The value was 0.

Q: And the “Plant response rating, Bromegrass, Downy” value [3, 15]?
A: Its value is 0.

Q: And the “Plant response rating, Bromegrass, Downy” value [3, 16]?
A: The value was 10.

Q: What about the “Plant response rating (scale of 0 to 100), Bromegrass, Downy” value ([3]; Preemergence, 31 g ai/ha) of the same compound?
A: Its value is 0.

Q: And the “Plant response rating, Bromegrass, Downy” value [3, 17]?
A: Its value is 0.

Q: What about the “Plant response rating, Bromegrass, Downy” value [3, 18] of the same compound?
A: The value was 15.

Q: And the “Plant response rating, Bromegrass, Downy” value [3, 19]?
A: The value was 20.

Q: What about the “Plant response rating, Bromegrass, Downy” value [3, 20] of the same compound?
A: Its value is 0.

Q: What about the “Buckwheat, Wild plant response rating” value [4, 14] of the same compound?
A: Its value is 100.

Q: What about the “Plant response rating, Buckwheat, Wild” value [4, 15] of the same compound?
A: Its value is 100.

Q: And the “Plant response rating, Buckwheat, Wild” value [4, 16]?
A: The value was 100.

Q: And the “Plant response rating (scale of 0 to 100), Buckwheat, Wild” value ([4]; Preemergence, 31 g ai/ha)?
A: Its value is 20.

Q: And the “Plant response rating, Buckwheat, Wild” value [4, 17]?
A: Its value is 20.

Q: And the “Plant response rating, Buckwheat, Wild” value [4, 18]?
A: Its value is 55.

Q: What about the “Plant response rating, Buckwheat, Wild” value [4, 19] of the same compound?
A: Its value is 100.

Q: What about the “Plant response rating, Buckwheat, Wild” value [4, 20] of the same compound?
A: Its value is 100.

Q: And the “Canarygrass plant response rating” value [5, 14]?
A: The value was 0.

Q: And the “Plant response rating, Canarygrass” value [5, 15]?
A: The value was 0.

Q: What about the “Plant response rating, Canarygrass” value [5, 16] of the same compound?
A: Its value is 0.

Q: What about the “Plant response rating (scale of 0 to 100), Canarygrass” value ([5]; Preemergence, 31 g ai/ha) of the same compound?
A: The value was 20.

Q: And the “Plant response rating, Canarygrass” value [5, 17]?
A: Its value is 25.

Q: And the “Plant response rating, Canarygrass” value [5, 18]?
A: The value was 25.

Q: What about the “Plant response rating, Canarygrass” value [5, 19] of the same compound?
A: Its value is 35.

Q: And the “Plant response rating, Canarygrass” value [5, 20]?
A: The value was 0.

Q: And the “Chamomile plant response rating” value [6, 14]?
A: Its value is 85.

Q: What about the “Plant response rating, Chamomile” value [6, 15] of the same compound?
A: Its value is 100.

Q: And the “Plant response rating, Chamomile” value [6, 16]?
A: The value was 100.

Q: What about the “Plant response rating (scale of 0 to 100), Chamomile” value ([6]; Preemergence, 31 g ai/ha) of the same compound?
A: The value was 60.

Q: And the “Plant response rating, Chamomile” value [6, 17]?
A: Its value is 100.

Q: What about the “Plant response rating, Chamomile” value [6, 18] of the same compound?
A: The value was 100.

Q: What about the “Plant response rating, Chamomile” value [6, 19] of the same compound?
A: Its value is 100.

Q: And the “Plant response rating, Chamomile” value [6, 20]?
A: Its value is 100.

Q: And the “Field Poppy plant response rating” value [7, 14]?
A: Its value is 85.

Q: And the “Plant response rating, Field Poppy” value [7, 15]?
A: The value was 90.

Q: And the “Plant response rating, Field Poppy” value [7, 16]?
A: The value was 100.

Q: What about the “Plant response rating (scale of 0 to 100), Field Poppy” value ([7]; Preemergence, 31 g ai/ha) of the same compound?
A: Its value is 0.

Q: What about the “Plant response rating, Field Poppy” value [7, 17] of the same compound?
A: The value was 0.

Q: And the “Plant response rating, Field Poppy” value [7, 18]?
A: Its value is 100.

Q: And the “Plant response rating, Field Poppy” value [7, 19]?
A: Its value is 100.

Q: What about the “Plant response rating, Field Poppy” value [7, 20] of the same compound?
A: Its value is 80.

Q: And the “Field Violet plant response rating” value [8, 14]?
A: Its value is 35.

Q: What about the “Plant response rating, Field Violet” value [8, 15] of the same compound?
A: Its value is 75.

Q: And the “Plant response rating, Field Violet” value [8, 16]?
A: Its value is 75.

Q: What about the “Plant response rating (scale of 0 to 100), Field Violet” value ([8]; Preemergence, 31 g ai/ha) of the same compound?
A: Its value is 0.

Q: And the “Plant response rating, Field Violet” value [8, 17]?
A: Its value is 10.

Q: And the “Plant response rating, Field Violet” value [8, 18]?
A: Its value is 75.

Q: What about the “Plant response rating, Field Violet” value [8, 19] of the same compound?
A: The value was 85.

Q: And the “Plant response rating, Field Violet” value [8, 20]?
A: Its value is 65.

Q: What about the “Mustard, Wild plant response rating” value [9, 14] of the same compound?
A: Its value is 20.

Q: And the “Plant response rating, Mustard, Wild” value [9, 15]?
A: The value was 90.

Q: What about the “Plant response rating, Mustard, Wild” value [9, 16] of the same compound?
A: The value was 100.

Q: And the “Plant response rating (scale of 0 to 100), Mustard, Wild” value ([9]; Preemergence, 31 g ai/ha)?
A: The value was 85.

Q: What about the “Plant response rating, Mustard, Wild” value [9, 17] of the same compound?
A: The value was 100.

Q: What about the “Plant response rating, Mustard, Wild” value [9, 18] of the same compound?
A: Its value is 90.

Q: And the “Plant response rating, Mustard, Wild” value [9, 19]?
A: Its value is 98.

Q: What about the “Plant response rating, Mustard, Wild” value [9, 20] of the same compound?
A: Its value is 75.

Q: What about the “Oat, Wild plant response rating” value [10, 14] of the same compound?
A: The value was 5.

Q: And the “Plant response rating, Oat, Wild” value [10, 15]?
A: Its value is 5.

Q: What about the “Plant response rating, Oat, Wild” value [10, 16] of the same compound?
A: Its value is 15.

Q: What about the “Plant response rating (scale of 0 to 100), Oat, Wild” value ([10]; Preemergence, 31 g ai/ha) of the same compound?
A: The value was 25.

Q: What about the “Plant response rating, Oat, Wild” value [10, 17] of the same compound?
A: Its value is 25.

Q: And the “Plant response rating, Oat, Wild” value [10, 18]?
A: The value was 25.

Q: And the “Plant response rating, Oat, Wild” value [10, 19]?
A: The value was 30.

Q: What about the “Plant response rating, Oat, Wild” value [10, 20] of the same compound?
A: Its value is 5.

Q: And the “Oilseed Rape plant response rating” value [11, 14]?
A: Its value is 0.

Q: And the “Plant response rating, Oilseed Rape” value [11, 15]?
A: Its value is 65.

Q: What about the “Plant response rating, Oilseed Rape” value [11, 16] of the same compound?
A: Its value is 80.

Q: And the “Plant response rating (scale of 0 to 100), Oilseed Rape” value ([11]; Preemergence, 31 g ai/ha)?
A: The value was 0.

Q: And the “Plant response rating, Oilseed Rape” value [11, 17]?
A: The value was 0.

Q: And the “Plant response rating, Oilseed Rape” value [11, 18]?
A: Its value is 0.

Q: And the “Plant response rating, Oilseed Rape” value [11, 19]?
A: The value was 55.

Q: And the “Plant response rating, Oilseed Rape” value [11, 20]?
A: The value was 5.

Q: What about the “Radish, Wild plant response rating” value [12, 14] of the same compound?
A: The value was 35.

Q: And the “Plant response rating, Radish, Wild” value [12, 15]?
A: Its value is 80.

Q: What about the “Plant response rating, Radish, Wild” value [12, 16] of the same compound?
A: Its value is 85.

Q: What about the “Plant response rating (scale of 0 to 100), Radish, Wild” value ([12]; Preemergence, 31 g ai/ha) of the same compound?
A: The value was 0.

Q: What about the “Plant response rating, Radish, Wild” value [12, 17] of the same compound?
A: The value was 15.

Q: What about the “Plant response rating, Radish, Wild” value [12, 18] of the same compound?
A: Its value is 55.

Q: What about the “Plant response rating, Radish, Wild” value [12, 19] of the same compound?
A: The value was 75.

Q: What about the “Plant response rating, Radish, Wild” value [12, 20] of the same compound?
A: Its value is 65.

Q: What about the “Wheat, Spring plant response rating” value [13, 14] of the same compound?
A: The value was 0.

Q: And the “Plant response rating, Wheat, Spring” value [13, 15]?
A: Its value is 0.

Q: And the “Plant response rating, Wheat, Spring” value [13, 16]?
A: The value was 5.

Q: What about the “Plant response rating (scale of 0 to 100), Wheat, Spring” value ([13]; Preemergence, 31 g ai/ha) of the same compound?
A: The value was 0.

Q: What about the “Plant response rating, Wheat, Spring” value [13, 17] of the same compound?
A: The value was 0.

Q: What about the “Plant response rating, Wheat, Spring” value [13, 18] of the same compound?
A: The value was 0.

Q: What about the “Plant response rating, Wheat, Spring” value [13, 19] of the same compound?
A: The value was 5.

Q: And the “Plant response rating, Wheat, Spring” value [13, 20]?
A: Its value is 0.
